Consider one compound from publication PMC11873939, “Target Identification with Live-Cell Photoaffinity Labeling and Mechanism of Action Elucidation of ARN23765, a Highly Potent CFTR Corrector” (Journal of Medicinal Chemistry, 2025).

The test system of one data set is CFTR. Set-up: method as in PMID 32128418. The conditions noted are these: HS-YFP assay; cited from earlier work.
In data set [1] the target is T1, R170G-CFTR (Homo sapiens, UniProt P13569, R170G).
T1 construct: CFTR identification in pull-down studies and analysis of full-length CFTR in protein maturation assays; expressed in transfected cells; host or cells: HEK293 (transient)
T1 sequence (P13569 whole entry R170G): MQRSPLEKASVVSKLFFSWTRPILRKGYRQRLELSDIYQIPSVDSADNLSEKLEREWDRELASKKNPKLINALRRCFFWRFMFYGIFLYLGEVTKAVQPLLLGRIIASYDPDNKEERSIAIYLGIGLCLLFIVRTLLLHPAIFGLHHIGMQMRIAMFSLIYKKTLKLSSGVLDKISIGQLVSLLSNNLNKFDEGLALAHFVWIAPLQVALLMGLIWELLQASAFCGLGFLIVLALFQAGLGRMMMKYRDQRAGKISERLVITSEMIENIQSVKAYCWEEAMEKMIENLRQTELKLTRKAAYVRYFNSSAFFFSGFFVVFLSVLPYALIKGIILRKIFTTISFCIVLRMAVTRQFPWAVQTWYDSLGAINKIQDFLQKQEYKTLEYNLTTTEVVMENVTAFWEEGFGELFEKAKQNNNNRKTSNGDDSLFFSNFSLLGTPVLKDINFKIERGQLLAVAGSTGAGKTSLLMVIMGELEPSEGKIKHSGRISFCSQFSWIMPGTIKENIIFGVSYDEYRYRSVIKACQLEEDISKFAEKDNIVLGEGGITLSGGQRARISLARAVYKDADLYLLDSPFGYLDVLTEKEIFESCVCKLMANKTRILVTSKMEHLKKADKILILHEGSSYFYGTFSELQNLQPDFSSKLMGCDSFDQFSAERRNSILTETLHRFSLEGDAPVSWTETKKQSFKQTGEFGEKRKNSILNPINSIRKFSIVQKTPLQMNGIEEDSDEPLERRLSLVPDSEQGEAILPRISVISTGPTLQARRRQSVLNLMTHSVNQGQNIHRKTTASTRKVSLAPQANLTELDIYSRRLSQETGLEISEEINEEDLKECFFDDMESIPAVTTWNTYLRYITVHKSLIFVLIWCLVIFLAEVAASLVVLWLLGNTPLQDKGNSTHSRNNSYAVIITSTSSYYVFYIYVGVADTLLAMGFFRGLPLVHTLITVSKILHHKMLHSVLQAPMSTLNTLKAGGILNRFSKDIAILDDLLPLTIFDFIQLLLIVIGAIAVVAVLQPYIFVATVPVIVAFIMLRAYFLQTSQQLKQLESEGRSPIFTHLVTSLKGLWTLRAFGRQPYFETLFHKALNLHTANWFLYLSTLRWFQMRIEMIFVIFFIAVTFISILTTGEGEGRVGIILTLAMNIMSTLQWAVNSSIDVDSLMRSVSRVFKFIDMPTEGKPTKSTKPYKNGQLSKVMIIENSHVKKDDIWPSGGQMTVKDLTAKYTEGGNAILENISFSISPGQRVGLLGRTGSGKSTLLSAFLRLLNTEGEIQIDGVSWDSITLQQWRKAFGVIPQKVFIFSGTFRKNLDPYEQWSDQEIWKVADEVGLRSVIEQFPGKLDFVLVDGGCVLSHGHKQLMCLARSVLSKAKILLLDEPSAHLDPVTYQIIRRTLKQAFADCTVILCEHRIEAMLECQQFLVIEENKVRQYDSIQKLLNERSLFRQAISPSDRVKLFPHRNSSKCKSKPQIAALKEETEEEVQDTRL
In words: Protein maturation assay (WB, band C/(C+B)) in transfected HEK293 cells. It counts as cell-based. The conditions noted are these: HEK293, 24 h, 10 nM. As to the method:
HEK293 cells were plated in 24-wells at around 80% of confluence and transfected with constructs coding for F508del-CFTR or mutants using JetPEI reagent (101000053, Polyplus Technology) following the manufacturer’s instructions. After 24 h, the correctors were added for a further 24 h. Correctors were used at the following concentrations: ARN23765 (10 nM), VX-445 (3 μM), and 3151 (10 μM). For binding site analysis experiments, the cells were kept either at 37 °C (Figure S8) or moved to 30 °C (Figure 9) during incubation with the selected correctors. VX-445 and corrector 3151 were mixed together as a control for maximal protein correction. DMSO (0.2%) was added to nontreated controls. After treatment, cells were lysed in RIPA buffer [50 mM tris-HCl pH 8, 150 mM NaCl, 1% NP40, 0.5% sodium deoxycolate, 0.1% SDS, 2.0 mM EDTA] and lysates were analyzed with WB, as described in the supplementary methods of the Supporting Information.

The target in another data set is T2, CFTR MSD1 (Homo sapiens, UniProt P13569).
T2 construct: MSD1 (residues 1–380); expressed in transfected cells; host or cells: HEK293 (transient, JetPEI)
T2 sequence (P13569 1-380): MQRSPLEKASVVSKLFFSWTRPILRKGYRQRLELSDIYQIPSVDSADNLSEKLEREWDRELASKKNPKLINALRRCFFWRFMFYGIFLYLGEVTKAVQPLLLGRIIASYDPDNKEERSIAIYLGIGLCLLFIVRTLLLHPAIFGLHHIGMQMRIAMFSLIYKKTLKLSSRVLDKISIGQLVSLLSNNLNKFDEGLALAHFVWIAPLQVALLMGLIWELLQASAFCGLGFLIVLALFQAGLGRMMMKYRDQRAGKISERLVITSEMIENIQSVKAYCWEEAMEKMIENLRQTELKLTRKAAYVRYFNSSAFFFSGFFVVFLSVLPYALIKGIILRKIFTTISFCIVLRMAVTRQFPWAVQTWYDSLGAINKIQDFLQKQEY
Briefly: Cycloheximide chase assay in transfected HEK293 cells. In kind it is cell-based. The conditions noted are these: HEK293, 10 nM 24 h, then 6 h of cycloheximide treatment. How it is done: (§1) HEK293 cells were transfected with MSD1- or MSD2-fragments as previously described.[39] After 18 h, cells were treated with either 0.2% DMSO or ARN23765 (10 nM). Following 24 h treatment, the protein synthesis was stopped by addition of a medium containing 0.5 mg/mL cycloheximide and either DMSO (0.2%) or ARN23765 (10 nM). The cells were incubated at 37 °C and lysed at various time periods (0–6 h). The whole cell extracts were then analyzed by WB, as described in the supplementary methods of the Supporting Information.

A further data set deals with T3, CFTR MSD2 (Homo sapiens, UniProt P13569).
T3 construct: A52-tagged MSD2 (residues 837–1196); expressed in transfected cells; host or cells: HEK293 (transient, JetPEI)
T3 sequence (P13569 837-1196): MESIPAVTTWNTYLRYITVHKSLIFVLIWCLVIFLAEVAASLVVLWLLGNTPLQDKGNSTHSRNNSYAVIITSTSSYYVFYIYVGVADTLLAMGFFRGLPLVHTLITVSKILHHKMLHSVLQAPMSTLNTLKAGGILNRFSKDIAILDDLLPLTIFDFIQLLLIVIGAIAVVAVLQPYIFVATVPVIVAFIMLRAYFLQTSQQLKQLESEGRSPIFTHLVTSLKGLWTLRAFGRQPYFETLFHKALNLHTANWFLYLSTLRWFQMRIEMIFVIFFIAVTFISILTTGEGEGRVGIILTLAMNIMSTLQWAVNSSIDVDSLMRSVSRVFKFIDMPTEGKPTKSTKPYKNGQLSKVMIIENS
The data set is described as above. In kind it is cell-based. The conditions noted are these: HEK293, 10 nM 24 h, then 6 h of cycloheximide treatment. As to the method: as §1

Data set [2] addresses T1, R170G-CFTR. In words: FLIPR membrane potential assay of CFTR channel activity in transfected HEK293 cells. It counts as cell-based. The conditions noted are these: HEK293, 24 h, 10 nM. How it is done: (§2) HS-YFP-based assay for CFTR activity
(§3) Twenty-four hours after seeding on 96-well plates, CFBE41o- cells stably over-expressing F508del-CFTR and the HS-YFP were treated with test compounds at different concentrations in the 3 nM-10 µM range.1 Cells treated with vehicle alone (DMSO) and with ARN23765, respectively, served as negative and positive controls. The following day, cells were washed with PBS containing (in mM) 137 NaCl, 2.7 KCl, 8.1 Na2HPO4, 1.5 KH2PO4, 1.0 CaCl2, and 0.5 MgCl2. Cells were then incubated for 25 min with […] of PBS plus forskolin (20 µM) and VX-770 (1 µM) to maximally stimulate F508del-CFTR. Cells were then transferred to a microplate reader (FluoStar Galaxy; BMG Labtech, Offenburg, Germany) for CFTR activity determination. The plate reader was equipped with high-quality excitation (HQ500/20X: 500 ± 10 nm) and emission (HQ535/30M: 535 ± 15 nm) filters for YFP (Chroma Technology). Each assay comprised a continuous 14 s fluorescence reading, 2 s before and 12 s after injection of […] of an iodide-containing solution (PBS with Cl- replaced by I-; final I- concentration […]). Data were normalized to the initial background-subtracted fluorescence. […]
(§4) Cell lysates or eluates from pull-down experiments were resolved by SDS-PAGE on 4-8 % tris-acetate gels (EA0378BOX, Life technologies) and were transferred into PVDF membranes (Immobilion-E IEVH00005, Millipore). […] Images were acquired with Chemidoc MP (BIO-RAD laboratories) and quantified with Image J software.
(§5) CFTR Channel function analysis by fluorometric imaging plate reader functional (FLIPR) assay FLIPR assay was performed as previously described.3 Briefly, HEK293 cells were seeded in 96-well plates (black, flat bottom, Corning) and transfected with mutated CFTR constructs. […]
(§6) µM) for 24 h at 30 °C or 37 °C. […] The plate was then read in a fluorescence plate reader (SpectraMax i3, Molecular Devices) at 37 °C (excitation: 530 nm, emission: 560 nm). […] CFTR-mediated depolarization was detected as an increase in fluorescence. […] The peak changes in fluorescence were normalized to fluorescence immediately […]

A further data set addresses T4, F508del/R1070W-CFTR (Homo sapiens, UniProt P13569, DEL508-508/R1070W).
T4 construct: CFTR identification in pull-down studies and analysis of full-length CFTR in protein maturation assays; expressed in transfected cells; host or cells: HEK293 (transient)
The data set is described as above. In kind it is cell-based. The conditions noted are these: HEK293, 24 h; ARN23765 10 nM, VX-661 3 μM. How it is done:
as §2, §3, §4, §5, §6

T4 sequence (P13569 with tags, fused parts or gaps DEL508-508/R1070W): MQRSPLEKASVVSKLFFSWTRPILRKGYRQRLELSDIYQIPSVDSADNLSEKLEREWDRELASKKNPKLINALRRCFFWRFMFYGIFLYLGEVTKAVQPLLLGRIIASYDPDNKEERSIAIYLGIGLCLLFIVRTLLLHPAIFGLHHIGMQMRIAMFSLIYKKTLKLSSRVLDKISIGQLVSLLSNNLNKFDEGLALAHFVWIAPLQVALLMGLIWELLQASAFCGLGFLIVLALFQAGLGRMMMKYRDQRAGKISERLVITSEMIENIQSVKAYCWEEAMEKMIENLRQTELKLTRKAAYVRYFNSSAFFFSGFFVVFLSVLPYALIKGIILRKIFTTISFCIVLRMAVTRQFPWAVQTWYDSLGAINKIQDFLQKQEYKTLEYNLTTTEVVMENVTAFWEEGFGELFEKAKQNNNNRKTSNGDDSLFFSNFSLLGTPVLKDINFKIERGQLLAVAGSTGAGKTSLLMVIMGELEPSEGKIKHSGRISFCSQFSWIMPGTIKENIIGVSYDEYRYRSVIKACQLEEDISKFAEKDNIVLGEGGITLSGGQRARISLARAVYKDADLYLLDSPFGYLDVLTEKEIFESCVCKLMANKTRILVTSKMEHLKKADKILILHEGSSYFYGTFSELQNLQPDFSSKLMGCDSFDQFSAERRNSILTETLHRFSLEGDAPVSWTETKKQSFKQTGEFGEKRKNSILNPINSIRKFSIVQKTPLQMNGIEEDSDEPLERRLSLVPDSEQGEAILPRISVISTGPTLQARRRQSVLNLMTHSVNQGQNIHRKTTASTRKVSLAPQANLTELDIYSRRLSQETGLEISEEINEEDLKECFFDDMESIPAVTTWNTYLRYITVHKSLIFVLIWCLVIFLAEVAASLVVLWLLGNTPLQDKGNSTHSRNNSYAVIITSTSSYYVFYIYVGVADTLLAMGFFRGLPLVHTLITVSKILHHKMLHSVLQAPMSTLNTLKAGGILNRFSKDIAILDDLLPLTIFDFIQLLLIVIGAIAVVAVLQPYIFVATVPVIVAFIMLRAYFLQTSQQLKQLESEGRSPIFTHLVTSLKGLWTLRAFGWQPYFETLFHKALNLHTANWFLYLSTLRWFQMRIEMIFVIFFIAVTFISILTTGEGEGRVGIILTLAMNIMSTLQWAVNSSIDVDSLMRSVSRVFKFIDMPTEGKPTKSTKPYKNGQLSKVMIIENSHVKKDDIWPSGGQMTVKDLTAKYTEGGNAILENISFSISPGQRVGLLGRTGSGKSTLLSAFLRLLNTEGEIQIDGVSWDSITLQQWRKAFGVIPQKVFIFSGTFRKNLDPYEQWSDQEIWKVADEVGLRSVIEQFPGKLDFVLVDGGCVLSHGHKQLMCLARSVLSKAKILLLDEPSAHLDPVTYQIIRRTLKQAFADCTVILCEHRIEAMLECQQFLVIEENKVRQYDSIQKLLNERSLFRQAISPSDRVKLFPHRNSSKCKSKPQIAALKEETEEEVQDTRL

`CN(C(=O)c1cccc(-n2nc(C(F)(F)F)c3c2[C@@H](Oc2ccc(C(=O)O)cc2)CCC3)c1)c1ccc2c(c1)OC(F)(F)O2` [ARN23765]: the “Effect on the protein gating” value with CFTR was “no effect”. Further, the R170G-CFTR maturation result at R170G-CFTR [1] is on record as “improving”. Moreover, the MSD1 half-life entry on CFTR MSD1 was “increased”. Moreover, the MSD2 stability result on CFTR MSD2 was “no effect”. The “R170G-CFTR activity (FLIPR)” value at R170G-CFTR [2] is “improving”. Moreover, the “F508del/R1070W channel activity (FLIPR)” value on F508del/R1070W-CFTR was “further enhanced”.
